From ChEMBL document CHEMBL1127842, “The desferrithiocin pharmacophore” (1994) come the findings set out here.

“And” between values parts separate entries of the source, which are not always exact repeats. Identical values can stand only once. The source made the active and inactive calls. The rule behind the calls is not given here.

The species entered for assay [1] is Rattus norvegicus. In words: Efficiency of iron clearance was determined. The arrangement: concentration or dose not given beside the values. The class given is functional.
Assay [2] relates to Rattus norvegicus. In words: Tested for Iron clearance of compound, when administered subcutaneously at a dose 150 umol/kg in bile duct cannulated rat. In kind it is functional. The note with it: in the assay text read “orally” for “subcutaneously”.
Assay [3] deals with Rattus norvegicus. In words: Tested for Iron clearance of compound, when administered orally at a dose 150 umol/kg in bile duct cannulated rat; Inactive.
For assay [4], the species on record is Rattus norvegicus. In words: Tested for formation constant of the compound. In kind it is functional.

As to `CN(O)C(=O)[C@H]1CSC(c2ncccc2O)=N1`, the Efficiency in the assay listed under Rattus norvegicus [1] amounted to 3.1%.

In the assay filed under Rattus norvegicus [1], `O=C(O)[C@@H]1CSC(c2ncccc2O)=N1` registered an Efficiency of 3.9%. This compound registered an Iron clearence with Rattus norvegicus [2] of 166 µg/kg.

For the compound `CC(=O)N(O)CCCCCNC(=O)CCC(=O)N(O)CCCCCNC(=O)CCC(=O)N(O)CCCCCN` [DEFEROXAMINE], the Efficiency in the assay filed under Rattus norvegicus [1] is 2.8% and 1%.

As for `O=C(O)C1CCSC(c2ncccc2O)=N1` (stereo not drawn), the Iron clearence result with Rattus norvegicus [3] is “inactive”.

In the assay listed under Rattus norvegicus [4], `O=C(O)[C@H]1CSC(c2ncccc2O)=N1` came in with a Kf of 4e+29 M⁻¹. Also, the Efficiency in the assay listed under Rattus norvegicus [1] is reported as 2.4%. This compound showed an Iron clearence with Rattus norvegicus [2] of 101 µg/kg.
